# Source: paper PMC11982978, “Cancer hotspot mutations rewire ERK2 specificity by selective exclusion of docking interactions” (The Journal of Biological Chemistry, 2025)
# Values joined by “and” are separate entries in the source; they are usually repeats but may differ in a detail not shown here. Equal values may be shown once.
# How the values were obtained:
# ERK2 E320K = assay: Y2H D-site library screen, ERK2 E320K; assay type: cell-based, rat; design: key to ES, +His / ES, -His: ES = slope of ln(Ft/F0) vs number of yeast population doublings
# Text: (§1) To examine how cancer-associated CD site mutations affect the scope of ERK2 docking interactions, we adopted a Y2H strategy that we previously applied to define the D-site interactome of WT ERK2 ([15]). This system reports on interactions between ERK2 and a fragment of its substrate ELK1 that harbors a docking site essential for binding (Fig. 1C). The system thus evaluates the binding of potential sequences by substituting them for the native ELK1 docking site. We transformed Y2H strains with a bait plasmid expressing the Gal4 DNA-binding domain (DBD) fused to WT or CD mutant forms of rat ERK2 (R133K, D319N or E320K, equivalent respectively to human R135K, D321N and E322K), along with a prey plasmid expressing Gal4 activation domain (AD) fused to the ELK1 fragment harboring various docking site sequences. We then assayed these strains for growth on solid media under non-selective (+His) and selective conditions (−His) to detect interactions (Fig. 1D).
# (§2) We previously used the Y2H system to screen WT ERK2 against a pooled library of 11,756 ELK1 variants incorporating potential docking sites from the human proteome ([15]). To identify interacting sequences either gained or lost upon ERK2 CD site mutation, we screened the same library against ERK2^D319N and ERK2^E320K. Yeast expressing ERK2 mutant bait plasmids were transformed with the ELK1 library pool and subjected to competitive growth under selective (−His) and non-selective conditions (+His) in parallel. Cultures were sampled periodically over ∼7 population doublings. The DNA sequence encoding the variable docking site region was PCR amplified and analyzed by next-generation sequencing (Fig. 2A, Dataset S1). The change in sequence abundance over time was fitted to an exponential function to assign an enrichment score (ES) to each docking site, where a higher ES indicates a greater increase in sequence abundance as the population grows. A significant enrichment of docking site sequences was observed only under selective conditions (Figs. 2B, S1). For each mutant, we observed generally good reproducibility across three independently conducted screens albeit with some sequences enriched in only a single replicate (Fig. S2, A and B). Average ES scores for the E320K and D319N mutant screens were better correlated with each other (R = 0.83) than were average ES scores for either mutant compared to WT ERK2 (R = 0.67 for WT versus D319N, R = 0.63 for WT versus E320K) (Fig. S2C).
# (§3) To compare sequences selected by CD mutants with those selected by WT ERK2, we defined those sequences with an ES equal to or higher than three standard deviations from the mean (Z > 3) as hits. Using this cutoff, we obtained 121, 127, and 153 hits sequences from the WT, D319N, and E320K screens, respectively (Fig. 2C, Dataset S2).
# (§4) Yeast harboring pGBT9-ERK2^E320K or pGBT9-ERK2^D319N were transformed with the pGADGH-ELK1 D-site library plasmid pool. Transformants (10–40 colonies per library component) were suspended in SD-Leu-Trp media, diluted to an OD600 of 0.1, and cultured in a shaking incubator at 30 °C to an OD600 of 1.0. The resulting culture was used to initiate a competitive selection screen. Cell growth, sample collection and data analysis were performed exactly as described previously for WT ERK2 ([15]). The frequency (F) of each D-site sequence at a given time point (t) was calculated by dividing the number of reads by the total read count for all sequences. For each sequence, a plot of ln(Ft/F0) as a function of the number of yeast population doublings was fit to a line, and the enrichment score (ES) for that sequence was defined as the slope of this line. Illumina sequencing reads, calculated ES, and Z scores for each screen are provided in Dataset S1.
# ERK2 D319N = assay: Y2H D-site library screen, ERK2 D319N; assay type: cell-based, rat; design: key to ES, +His / ES, -His: ES = slope of ln(Ft/F0) vs number of yeast population doublings
# Text: as §1, §2, §3, §4
# WT ERK2 [1] = assay: Y2H D-site library screen, WT ERK2; assay type: cell-based, rat; design: key: ES = slope of ln(Ft/F0) vs number of yeast population doublings; details: mutant ES is the combined average ES from the D319N and E320K screens
# Text: as §1, §2, §3, §4
# WT ERK2 [2] = details: selective conditions (-His); hits Z > 3; average of three screens; cited from earlier work
# Text: Supplement mmc2.xlsx, sheet "WT Hits" | column: Z-score
# ERK2 WT = biological target: T1, ERK2 WT (Mus musculus, UniProt P63085); assay: Competitive peptide kinase assay (D-peptide inhibition), ERK2 WT; assay type: biochemical; details: Table 2, 5 μM D-site dependent reporter peptide, 10 nM ERK2, 10 μM ATP, pH 7.4, fluorescence, mean of three independent replicates
# T1 construct: His6; made in house; host or cells: E. coli BL21(DE3), co-expressed with GST-MEK1ΔN3
# T1 sequence (P63085 whole entry): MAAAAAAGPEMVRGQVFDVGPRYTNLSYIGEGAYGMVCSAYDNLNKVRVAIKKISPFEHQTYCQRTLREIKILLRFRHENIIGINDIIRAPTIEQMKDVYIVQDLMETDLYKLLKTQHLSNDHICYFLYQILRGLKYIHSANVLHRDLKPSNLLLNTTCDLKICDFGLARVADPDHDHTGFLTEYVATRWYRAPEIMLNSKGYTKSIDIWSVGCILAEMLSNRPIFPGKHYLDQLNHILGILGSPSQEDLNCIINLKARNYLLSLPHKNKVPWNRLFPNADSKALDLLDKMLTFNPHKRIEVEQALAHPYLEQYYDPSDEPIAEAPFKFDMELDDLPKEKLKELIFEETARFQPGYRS
# Protocol: We determined relative binding affinities for D-peptides from their potency as competitive inhibitors of WT or mutant ERK2 activity on a D-site-dependent reporter substrate peptide (Table S1, Fig. 3A, S3).
# Competitive peptide kinase assays were performed with a D-site dependent MAPK reporter substrate peptide (AssayQuant Technologies Inc, #AQT0376) as we reported previously ([15]). Briefly, 5 μM of reporter peptide was mixed with various concentrations of D-peptides in reaction buffer (54 mM HEPES [pH 7.4], 1.2 mM DTT, 0.01% Brij-35, 1% glycerol, 0.2 mg/ml BSA, and 10 mM MgCl2). […] Phosphorylation of the reporter peptide was measured by fluorescence (λex 360 nm, λem 485 nm) in 90 s intervals over 21 min in a Spectra M5 plate reader. Rates were calculated from the linear portion of the reaction progress curve, and data were normalized to maximum (samples lacking competitor peptide) and minimum (control reactions lacking kinase) values. Normalized rates were plotted against D-peptide concentration and fitted into a sigmoidal dose-response curve to determine the IC50 values using GraphPad Prism (Version 9.3.0).
# [3] = Average of 3 Replicate Experiments, non-selective
# [4] = Average of 3 Replicate Experiments, selective
# [5] = Average of 3 Replicate Screens, non-selective
# [6] = Average of 3 Replicate Screens, selective
molecule,measurement,setting,value
"RQIRASKGIVVLEE [KANSL1L, D-site 14-mer in ELK1 Y2H prey]","ES, +His",ERK2 E320K; [3],-0.008476
same,"Z-Score, +His",ERK2 E320K; [3],-0.2637
same,"ES, -His",ERK2 E320K; [4],-0.1355
same,"Z-Score, -His",ERK2 E320K; [4],-0.3259
same,"ES, +His","ERK2 E320K; Experiment 1, non-selective",0.001097
same,"ES, -His","ERK2 E320K; Experiment 1, selective",-0.1358
same,"ES, +His","ERK2 E320K; Experiment 2, non-selective",-0.005884
same,"ES, -His","ERK2 E320K; Experiment 2, selective",-0.07688
same,"ES, +His","ERK2 E320K; Experiment 3, non-selective",-0.02064
same,"ES, -His","ERK2 E320K; Experiment 3, selective",-0.1937
same,"ES, +His",ERK2 D319N; [5],-0.009508
same,"Z-Score, +His",ERK2 D319N; [5],-0.257
same,"ES, -His",ERK2 D319N; [6],-0.1275
same,"Z-Score, -His",ERK2 D319N; [6],-0.06943
same,"ES, +His","ERK2 D319N; Experiment 1, non-selective",-0.002763
same,"ES, -His","ERK2 D319N; Experiment 1, selective",-0.1582
same,"ES, +His","ERK2 D319N; Experiment 2, non-selective",-0.0144
same,"ES, -His","ERK2 D319N; Experiment 2, selective",-0.1186
same,"ES, +His","ERK2 D319N; Experiment 3, non-selective",-0.01136
same,"ES, -His","ERK2 D319N; Experiment 3, selective",-0.1057
"RSKLRKPKPVPLRK [TACC1, D-site 14-mer in ELK1 Y2H prey]",WT ES - mutant ES,WT ERK2 [1],0.162
same,"Z-score (ES) of hit sequences, WT ERK2 Y2H screen",WT ERK2 [2],5.18
"RLRNRNCLELKIKD [ANKRD12, D-site 14-mer in ELK1 Y2H prey]",WT ES - mutant ES,WT ERK2 [1],0.443
same,"Z-score (ES) of hit sequences, WT ERK2 Y2H screen",WT ERK2 [2],10.11
"GSRCARIFRLVLQK [POLR3C, D-site 14-mer in ELK1 Y2H prey]",WT ES - mutant ES,WT ERK2 [1],0.285
same,"Z-score (ES) of hit sequences, WT ERK2 Y2H screen",WT ERK2 [2],6.39
"RLLWRRLKPLILGK [ABCA7, D-site 14-mer in ELK1 Y2H prey]",WT ES - mutant ES,WT ERK2 [1],0.266
same,"Z-score (ES) of hit sequences, WT ERK2 Y2H screen",WT ERK2 [2],5.86
"LYKRRKESILTIQK [ASPM, D-site 14-mer, start residue 1508, in ELK1 Y2H prey]",WT ES - mutant ES,WT ERK2 [1],0.329
same,"Z-score (ES) of hit sequences, WT ERK2 Y2H screen",WT ERK2 [2],7.80 and 6.10
"PLFLRRKPVLSFQG [LIG3, D-site 14-mer in ELK1 Y2H prey]",WT ES - mutant ES,WT ERK2 [1],0.487
same,"Z-score (ES) of hit sequences, WT ERK2 Y2H screen",WT ERK2 [2],10.87
"IRARRGLPRLAVSD [ISG20, D-site 14-mer in ELK1 Y2H prey]",WT ES - mutant ES,WT ERK2 [1],0.761
same,"Z-score (ES) of hit sequences, WT ERK2 Y2H screen",WT ERK2 [2],14.42
CC[C@H](C)[C@H](NC(=O)[C@H](CCCNC(=N)N)NC(=O)[C@H](C)NC(=O)[C@@H](N)Cc1ccc(O)cc1)C(=O)N[C@@H](C)C(=O)N[C@@H](CCCNC(=N)N)C(=O)N[C@@H](CCCNC(=N)N)C(=O)NCC(=O)N[C@@H](CC(C)C)C(=O)N1CCC[C@H]1C(=O)N[C@@H](CCCNC(=N)N)C(=O)N[C@@H](CC(C)C)C(=O)N[C@@H](C)C(=O)N[C@H](C(=O)N[C@@H](CO)C(=O)N[C@@H](CC(=O)O)C(=O)O)C(C)C [ISG20 peptide I1R/R2I],IC50,ERK2 WT,200 µM
CC(C)C[C@H](NC(=O)[C@H](CCCNC(=N)N)NC(=O)[C@@H]1CCCN1C(=O)[C@H](CC(C)C)NC(=O)CNC(=O)[C@H](CCCNC(=N)N)NC(=O)[C@H](CCCNC(=N)N)NC(=O)[C@H](C)NC(=O)[C@H](CCCNC(=N)N)NC(=O)[C@H](CC(N)=O)NC(=O)[C@H](C)NC(=O)[C@@H](N)Cc1ccc(O)cc1)C(=O)N[C@@H](C)C(=O)N[C@H](C(=O)N[C@@H](CO)C(=O)N[C@@H](CC(=O)O)C(=O)O)C(C)C [ISG20 peptide I1N],IC50,ERK2 WT,190 µM
"ILLRRSLEAIELGL [KLC2, D-site 14-mer in ELK1 Y2H prey]",WT ES - mutant ES,WT ERK2 [1],0.282
same,"Z-score (ES) of hit sequences, WT ERK2 Y2H screen",WT ERK2 [2],5.90
"GTRQVKNKGVIVKK [MEIKIN, D-site 14-mer in ELK1 Y2H prey]","ES, +His",ERK2 E320K; [3],-0.01644
same,"Z-Score, +His",ERK2 E320K; [3],-0.6905
same,"ES, -His",ERK2 E320K; [4],-0.1045
same,"Z-Score, -His",ERK2 E320K; [4],0.2622
same,"ES, +His","ERK2 E320K; Experiment 1, non-selective",0.02832
same,"ES, -His","ERK2 E320K; Experiment 1, selective",-0.1559
same,"ES, +His","ERK2 E320K; Experiment 2, non-selective",-0.03889
same,"ES, -His","ERK2 E320K; Experiment 2, selective",-0.03551
same,"ES, +His","ERK2 E320K; Experiment 3, non-selective",-0.03876
same,"ES, -His","ERK2 E320K; Experiment 3, selective",-0.1222
same,"ES, +His",ERK2 D319N; [5],-0.02174
same,"Z-Score, +His",ERK2 D319N; [5],-0.8853
same,"ES, -His",ERK2 D319N; [6],-0.1312
same,"Z-Score, -His",ERK2 D319N; [6],-0.1438
same,"ES, +His","ERK2 D319N; Experiment 1, non-selective",-0.02593
same,"ES, -His","ERK2 D319N; Experiment 1, selective",-0.1282
same,"ES, +His","ERK2 D319N; Experiment 2, non-selective",-0.03529
same,"ES, -His","ERK2 D319N; Experiment 2, selective",-0.1336
same,"ES, +His","ERK2 D319N; Experiment 3, non-selective",-0.004005
same,"ES, -His","ERK2 D319N; Experiment 3, selective",-0.1318
"CLSWKRMAGIFFLP [GLB1L3, D-site 14-mer in ELK1 Y2H prey]",WT ES - mutant ES,WT ERK2 [1],0.781
same,"Z-score (ES) of hit sequences, WT ERK2 Y2H screen",WT ERK2 [2],14.12
"LWTRRRSERIFLHD [TNRC18, D-site 14-mer in ELK1 Y2H prey]",WT ES - mutant ES,WT ERK2 [1],0.332
same,"Z-score (ES) of hit sequences, WT ERK2 Y2H screen",WT ERK2 [2],7.78
"TRHERNYTKVNFCK [ZNF675, D-site 14-mer in ELK1 Y2H prey]",WT ES - mutant ES,WT ERK2 [1],0.359
same,"Z-score (ES) of hit sequences, WT ERK2 Y2H screen",WT ERK2 [2],7.60
